Results taken from a melting point compilation (Tetko et al.; mined from patent text by program, amines drawn as free bases though some values may be those of a salt).

For `Cc1ccc(-c2cnc(-c3cc(C(F)(F)F)cc(C(F)(F)F)c3)s2)s1`, the melting point was 120 to 121 °C.
`O=C1CCN(Cc2ccc3ccccc3n2)CC1C(c1ccc(F)cc1)c1ccc(F)cc1` (configuration not stated) gave a melting point of 188 to 189 °C.
`O=C(O)c1ncn2c1Cn1ccnc1-c1sccc1-2` gave a melting point of 225 to 227 °C.
`Cc1nc2c3c(ccc2n1C)[C@@H](OCCF)[C@H](O)[C@@H](c1ccccc1)O3` gave a melting point of 226 °C.
In the case of `CCOc1ccc(-n2c(NCc3ccc(Br)cc3)nc3ccc(Cl)cc32)cc1`, the melting point is reported as 140 to 141 °C.
For `CCOC(=O)Cc1ccnc(-c2nn(C(C)(C)C)c(N)c2C#N)c1`, the melting point was 141 to 143 °C.
In the case of `CC1(CCC#N)N=C(c2ccc(Cl)cc2)OC1=O` (configuration not stated), the melting point is reported as 97 to 98 °C.
Work on `CN(C)CC1CCc2cc(OCc3ccc(NC(=O)c4ccccc4)cc3)ccc2C1` (configuration not stated) yielded a melting point of 128 to 133 °C.
`COc1ccc(-c2coc(C(N)=O)cc2=O)cc1` showed a melting point of 262 to 263 °C.
For `CC(=O)SC(CC(=O)c1cccc(C)c1)C(=O)O` (configuration not stated), the melting point was 74 to 76 °C.
Compound `COC(=O)CCC(=O)c1ccc(-c2ccc(C)cc2)cc1` has a melting point of 121 to 122 °C.
Work on `NS(=O)(=O)c1cc2cc[nH]c(=O)c2s1` yielded a melting point of 295 to 297 °C.
For `CC(C)NC(=O)Nc1ccc([N+](=O)[O-])cc1O`, the melting point was 160 to 161 °C.
With `CC1CCC(n2ncc(-c3ccc(S(C)(=O)=O)cc3)c(-c3ccc(F)cc3)c2=O)C1` (configuration not stated) the melting point was 169 to 171 °C.
For `COc1ccc(C(NCc2cccc(F)c2)c2cccc(Nc3c(N)c(=O)c3=O)c2)cc1` (configuration not stated), the melting point was 209 to 212 °C.
For `CS(=O)(=O)c1ccc(-c2nc(C(F)(F)F)nc(N=[N+]=[N-])c2-c2ccc(F)cc2)cc1`, the melting point was 285 to 288 °C.
`O=C1OC(CCCCl)CN1c1ccccc1` (configuration not stated) gave a melting point of 76 to 79 °C.
`Cc1cc(C(=O)C2CCc3nc[nH]c3C2)c2ccccn12` (configuration not stated) gave a melting point of 219 to 221 °C.
`CSCc1cccc(CNC(=O)c2nc3scc(COCc4ccc(C(=O)O)cc4)c3c(=O)[nH]2)c1` gave a melting point of 222 to 223 °C.
Compound `CCCCCCCCCCCC1Cc2c(cccc2C(=O)O)N1` (racemic) has a melting point of 105 to 108 °C.
`CSc1ccc(-c2nn(Cc3ccc(Cl)cc3Cl)c(=S)cc2-c2ccc(F)cc2)cc1` gave a melting point of 154 °C.
Work on `O=C(O)C1c2ccccc2Cc2ccccc21` yielded a melting point of 139 °C.
Compound `C=CCN(CC(N)=O)S(=O)(=O)Cc1cccc(C(F)(F)F)c1` has a melting point of 91 to 92 °C.
For `C=CCCCCN1C(=O)c2ccccc2C1=O`, the melting point was 17 to 20 °C.
Work on `COC(=O)C(Cl)C(C)=NNS(=O)(=O)c1ccc(C)cc1` (configuration not stated) yielded a melting point of 97 to 101 °C.
With `CCOC(=O)/C=C(C)/C=C/C1=C(c2ccc3c(c2)C(C)(C)CCC3(C)C)CCC1` the melting point was 83 to 86 °C.
Compound `CS(=O)c1ncc(Br)cn1` (configuration not stated) has a melting point of 90 °C.
For `CCOc1nc2cccc(CC)c2c(=O)o1`, the melting point was 89 to 91 °C.
For `CC(=O)Nc1nc(CCc2ccc(CON3C(=O)c4ccccc4C3=O)cc2)cs1`, the melting point was 225 to 226 °C.
For `CC(C)CCOc1ccc2sc(C(=O)O)cc(=O)c2c1`, the melting point was 208 to 209 °C.
`CC(C)(C)NC(=O)c1ncccc1CCc1ccc(F)cc1` showed a melting point of 59 to 61 °C.
Work on `O=C(O)CCCC(=O)N[C@@H](Cc1ccccc1)C(=O)NCCCCNc1ncccn1` yielded a melting point of 186 °C.
`CC#CCN(c1nc(-c2ccc(OC)cc2Cl)c(C)s1)C(COC)c1ccccc1` (configuration not stated) showed a melting point of 70 °C.
`FC(F)(F)c1cccc(-n2cnnc2Oc2ccccc2)c1` showed a melting point of 83 to 85 °C.
With `COC(=O)NCCOC(=O)C(C)Oc1ccc(Oc2cnc3cc(Cl)ccc3n2)cc1` (configuration not stated) the melting point was 103 to 104 °C.
`CCOC(=O)Cn1nnnc1C(=O)c1ccccc1` showed a melting point of 63 to 67 °C.
With `COc1ccc(-c2csc(Nc3cc4ccccc4cn3)n2)cc1` the melting point was 224 to 228 °C.
With `C[Si](C)(C)c1ccc(O)cc1` the melting point was 76 °C.
For `O=C(O)COc1cc(F)ccc1C(=S)NCc1ccc(Br)cc1F`, the melting point was 154 to 157 °C.
For `Nc1ccc(S(=O)(=O)N2C=CC(CCO)Sc3ccccc32)cc1` (configuration not stated), the melting point was 145 to 148 °C.
`CN1C(=O)C(c2ccccc2)NC(=O)/C1=C/c1c[nH]c2ccccc12` (configuration not stated) gave a melting point of 120 to 123 °C.
For `COc1cccc(CC(=O)O)c1OCCc1ccccc1`, the melting point was 88 to 89 °C.
Compound `CCCCCCC(C)(C)c1ccc([C@@H]2CCC[C@H](O)C2)c(O)c1` (relative stereo) has a melting point of 109 to 110 °C.
For `COc1ccc(-c2ccc3c(=O)[nH]c(=O)[nH]c3n2)cc1COC(=O)C(C)(C)C`, the melting point was 260 to 266 °C.
In the case of `N#CCOc1cccc(COc2ccc(OCc3ccc4ccccc4n3)cc2)c1`, the melting point is reported as 110 to 114 °C.
Compound `Nc1ccc(-c2noc(-c3cnn4c(C(F)(F)F)cc(-c5ccc(Cl)cc5)nc34)n2)cn1` has a melting point of 253 °C.
For `C=Cc1ccc(NS(C)(=O)=O)cc1`, the melting point was 97 °C.
For `COC(=O)Cc1ccc(OCc2ccc(-c3ccccc3)cc2)cc1`, the melting point was 115 to 116 °C.
For `CCOC(=O)CNc1nc(C)c(C(=O)OCC)c(NC(C)CC)c1[N+](=O)[O-]` (configuration not stated), the melting point was 43 to 45 °C.
Compound `COC(=O)[C@@H]1CC(=O)N(c2ccc(O)cc2)C1` has a melting point of 123 °C.
Work on `COc1ccc(C(=O)Nc2ccccc2)cc1NC(=O)C(O)c1ccccc1` (configuration not stated) yielded a melting point of 173 to 175 °C.
For `Nc1nc2ccccc2c2c1nc(O)n2CC1CCOCC1`, the melting point was > 250 °C.
Work on `CCc1noc(-c2cn(-c3cnccn3)cn2)n1` yielded a melting point of 166 to 167 °C.
`O=C(O)C1CCCN1C(=O)CCc1cccc(-c2nc(=O)c3ccccc3s2)n1` (configuration not stated) gave a melting point of 210 to 211 °C.
`CN1OCCN(c2cc(Cl)cc(Cl)c2)C1=O` gave a melting point of 105 to 106 °C.
`CCOC(=O)c1c[nH]c(C2CCN(CCC(CN(C)C(=O)c3ccccc3)c3ccc(Cl)c(Cl)c3)CC2)n1` (configuration not stated) gave a melting point of 96 to 102 °C.
Compound `N#Cc1ccc(-c2cnc3[nH]c(=O)n(CC4CCCCC4)c3n2)cc1` has a melting point of 255 to 257 °C.
For `CC1(N)CCN(c2ncc3ncnc(Nc4ccc(F)c(Cl)c4)c3n2)CC1`, the melting point was 188 to 190 °C.
For `CC(O)(CF)C(=O)Nc1ccc(S(=O)(=O)c2ccccc2)cc1` (configuration not stated), the melting point was 189 to 192 °C.
`Cc1ccc2c(c1)CCN2c1ccccc1C#N` showed a melting point of 59 to 60 °C.
`Cc1ccc(C(=O)S[C@@H](C)C(=O)N2CSC[C@H]2C(=O)O)cc1` showed a melting point of 166 °C.
`C[C@H](NC(=O)OCc1ccccc1)C(=O)N1CCC[C@H]1C(=O)NC1CCCCCC1` gave a melting point of 110 to 113 °C.
In the case of `COc1cc(OC)nc(Oc2cccc3cc(C)oc(=O)c23)n1`, the melting point is reported as 188 to 190 °C.
In the case of `O=S1(=O)CCC(=S)Nc2ccc(Cl)cc2C1c1ccccc1F` (configuration not stated), the melting point is reported as 226 °C.
For `COC(=O)c1ccc(NC(=O)c2cc(C(C)C)c(C(C)C)o2)cc1Cl`, the melting point was 123 to 124 °C.
Work on `Cc1oc(-c2ccccc2)nc1COc1ccc(C(=O)c2ccccc2OC(C)C(=O)O)cc1` (configuration not stated) yielded a melting point of 186 to 187 °C.
Work on `CCn1c(=O)c2c(nc(/C=C/c3ccc4c(c3)OCO4)n2C)n(CC)c1=O` yielded a melting point of 219 to 220 °C.
`CCCCCCNC(=O)c1cc(OC(C)=O)ccc1OC(C)=O` showed a melting point of 76.5 to 77 °C.
`Cc1cc(-n2cncn2)ccc1[N+](=O)[O-]` gave a melting point of 116 to 117 °C.
For `Nc1ccc(Sc2ccccc2)cc1`, the melting point was 99 °C.
Compound `CCC(N(C)C)n1cc(C(=O)CN2CCCCC2)cc1C(=O)c1ccc(Cl)cc1` (configuration not stated) has a melting point of 138 to 141 °C.
For `CC1(C)CNC(=S)NC1`, the melting point was 225 to 228 °C.
With `CC1(C)CCC(C)(C)c2c(O)cc(C=O)cc21` the melting point was 144 °C.
Work on `C[C@@H](NC(=O)OC(C)(C)C)c1nc2c(Cl)cccc2s1` yielded a melting point of 95 to 96 °C.
In the case of `CC(C)Oc1ccc(F)c(-c2nn(C(C)c3oc4ccccc4c(=O)c3-c3cccc(F)c3)c3ncnc(N)c23)c1` (configuration not stated), the melting point is reported as 198 to 201 °C.
With `COC1=C(OC)C(=O)C(CCCCCCCCCCCCOC(C)=O)=C(C)C1=O` the melting point was 47 °C.
`CC(C)(C)OC(=O)N1CCC(NC(=O)c2ccc(-n3cccn3)cc2)C1` (configuration not stated) showed a melting point of 263 to 264 °C.
For `CCCCCCCCCCCCCCCC(=O)n1nnnc1C(F)(F)F`, the melting point was 66 to 69 °C.
With `COC(=O)C(=CNc1ccc(F)c(F)c1OCC(C)O)C(=O)OC` (configuration not stated) the melting point was 107 to 108 °C.
With `CS(=O)(=O)Nc1ccc(N2CCN(Cc3ccc(-c4ccccc4)o3)CC2)cc1` the melting point was 178 °C.
In the case of `COc1cc(OC)c2cc(-c3cc(OC)c(OC)c(OC)c3)oc2c1`, the melting point is reported as 131 to 132 °C.
`O=C(O)COC(c1cccc(-c2nnc(Nc3ccc(Cl)c(Cl)c3)s2)c1)c1cccc(C(F)(F)F)c1` (configuration not stated) showed a melting point of 89 to 91 °C.
For `CN(C(=O)c1ccc2c(c1)nc(NC(=O)c1cccs1)n2CCCC(N)=O)C1CCCCC1`, the melting point was 112 to 115 °C.
With `CC1CC(=O)C=C(c2ccc(OCC(=O)O)c(Cl)c2Cl)C1` (configuration not stated) the melting point was 187 to 190 °C.
`Cn1c(COc2ccc(CC3SC(=O)NC3=O)cc2)nc2cc(C(F)(F)F)cnc21` (configuration not stated) showed a melting point of 212 to 214 °C.
Compound `CC(C)(C)OC(=O)N1CCC[C@H](O)[C@@H]1c1ccc(Cl)cc1` (relative stereo) has a melting point of 95 to 96 °C.
In the case of `O=C(Cn1ccnc1)CS(=O)(=O)c1ccccc1`, the melting point is reported as 137 to 140 °C.
`O=C1C(=Cc2ccccc2)SC(=S)N1N=c1sc2ccccc2s1` showed a melting point of 288 to 289 °C.
In the case of `Cc1cc([N+](=O)[O-])c(C)c(Cl)c1Oc1ccc(Cl)c2ccccc12`, the melting point is reported as 135 to 137 °C.
With `N#Cc1cn(Cc2ccccc2)nn1` the melting point was 78 to 79 °C.
Work on `Cc1cccc2c1Oc1ccccc1N2` yielded a melting point of 91 °C.
In the case of `COC(C(C)C)C(C)(C)C(=O)Nc1ccc(Cl)cc1` (configuration not stated), the melting point is reported as 103 to 107 °C.
With `COC(=O)Cc1ccc(C(=O)c2ccc(C)cc2)[nH]1` the melting point was 118 to 120 °C.
With `CC(C)(C)c1cc(C(=O)Nc2ccc(N)cc2)cc(C(C)(C)C)c1O` the melting point was 220 to 221 °C.
Work on `Cc1ccc(NS(=O)(=O)c2ccc(Br)cc2)c(F)c1` yielded a melting point of 111 °C.
Work on `O=C(/C=C/C=C(c1cccc(Cl)c1)c1cccc(Cl)c1)NCCCCc1cccnc1` yielded a melting point of 100 to 102 °C.
For `CCCCCCCCCCCCCCOc1ccc(C(=O)Oc2ccc(-c3ncc(C(=O)O[C@@H](C)CCCCCC)cn3)cc2)cc1`, the melting point was 85.4 °C.
Compound `COC(=O)c1cc(OCCCCCCOc2ccc(-c3ccccc3)cc2)ccc1OCc1ccccc1` has a melting point of 85 to 87 °C.
In the case of `CC(=O)N1C(=O)N(c2cc(Cl)cc(Cl)c2)C(=O)[C@]12CN(Cc1ccccc1)C[C@H]2c1ccc(C#N)cc1` (relative stereo), the melting point is reported as 224 °C.
With `Cc1ccc(Cc2cnc(NCCCN(C)c3ncc(Br)cn3)[nH]c2=O)cn1` the melting point was 137 to 140 °C.
`CCCCN(CC)c1cc(C)nc(Oc2c(C)cc(Cl)cc2C)c1C` gave a melting point of 177 to 178 °C.
Compound `O=C1Nc2ccc(F)cc2C1c1ncnc2nn(C3CCCC3)cc12` (configuration not stated) has a melting point of 256 to 260 °C.
